These results are taken from publication PMC8894159, “Paltusotine, a novel oral once-daily nonpeptide SST2 receptor agonist, suppresses GH and IGF-1 in healthy volunteers” (Pituitary, 2022).

Molecules are shown by their SMILES.

The assay deals with GHRH-stimulated GH secretion. Description: GHRH challenge: suppression of GHRH-stimulated GH secretion, single-dose cohorts. In kind it is in vivo, human. Here is the method:
To assess the ability of paltusotine to suppress GHRH-stimulated GH secretion, a GHRH challenge was performed in single-dose cohorts S1, S2, S3, S4, and S5 (oral solution) (Fig. 1). Recombinant human GHRH(1-44)-NH2 (somatorelin; Ferring Pharmaceuticals, Parsippany, NJ) 50 µg was administered intravenously 2 h after paltusotine (or placebo) on Day 1 and at approximately the same time on Day -1 (± 10 min). A blood sample for serum GH was collected at − 60 min, − 30 min, immediately before GHRH challenge, and at 15, 30, 45, 60, 90, and 120 min post-challenge. Serum GH was also assessed in the M1 cohort. Serum GH sample was collected on Day - 1, on Days 1 and 7 (pre-dose, 0.5, 1, 2, 3, 4, 6, 8, 10, 12 and 18 h post-dose), Days 2–6 (pre-dose and 12 h post-dose), and Days 8, 10 and 14 (at approximately the same time as dosing).
Serum was isolated, stored, and analyzed for IGF-1 and GH according to the instructions from the manufacturer (IGF-1 and human GH diagnostic assay, Siemens Immulite® 1000 systems).
The study endpoints were effects of paltusotine on GHRH-stimulated GH and IGF-1 (pharmacodynamics), pharmacokinetics (including formulation and food effects), safety, and tolerability. For the analysis of effects paltusotine on GHRH-stimulated GH and IGF-1, the pharmacodynamic population included all randomized participants in the 1.25 mg, 2.5 mg, 5 mg, 10 mg, and 20 mg (S1, S2, S3, S4A, and S5) single-dose cohorts who received any amount of study drug and had at least one post-baseline pharmacodynamic assessment. The percent change in serum GH area under the curve (AUC) from 0 to 2 h (AUC0-2) from baseline was compared using ANOVA between each dosing cohort and all participants who received placebo. The single-dose pharmacodynamic population included 39 participants from the S1, S2, S3, S4, and S5 cohorts (paltusotine n = 29; placebo n = 10). […] For multiple-dose cohorts, only participants who received all doses were included. A change in IGF-1 levels 12 h post last dose from baseline (average of 3–4 measurements) were compared by ANOVA between each dosing cohort and all participants who received placebo. The multiple-dose pharmacodynamic population included 31 participants from the M1, M2, M3, and M4 cohorts (paltusotine n = 21; placebo n = 10).

Setting [1] is: plasma concentration-response model, 1.25-20 mg single doses.

On to `Cl.N#Cc1cccc(-c2ccc3ncc(-c4cc(F)cc(F)c4)c(N4CCC(N)CC4)c3c2)c1O` [paltusotine, 3-[4-(4-Aminopiperidin-1-yl)-3-(3,5-difluorophenyl)quinolin-6-yl]-2-hydroxybenzonitrile hydrochloride], for which, where the note is “10 mg single dose, Day 1, GHRH alone on Day -1 gave 21 ng/mL”, the “mean peak GH concentration after GHRH challenge” value was 1.7 ng/mL. In addition, the “suppression of stimulated GH AUC0-2 h” value (10 mg single dose, placebo 15%) amounted to 91%. The EC50 (Homo sapiens, read-out: paltusotine concentration for 50% GH suppression (EC50), plasma concentration-response model, 1.25-20 mg single doses) is ~7.9 ng/mL. Moreover, under setting [1], the “paltusotine concentration for 50% GH suppression (EC50)” value was 7.9 ng/mL and the “paltusotine concentration for 80% GH suppression (EC80)” value is listed as ~29 ng/mL.
